The subject of assay [1] is IFNE1 mRNA in Calu-1 cells. Nature of the assay: QRT-PCR of IFNE1 level in Calu-1 cells treated with P276-00 or Flavopiridol. The class given is cell-based, human. To be noted: at most time points (4, 8, 12, 24, 48 hours). As for the experimental part: FIGS. 3A, 3B and 3C show expression of IFNE1 in different cancer cell lines treated with P276-00 and Flavopiridol. The different cell lines were treated with the agent for the indicated times and the level of IFNE1 mRNA were estimated using Real Time RT-PCR. Using the Actin gene for normalization, IFNE1 expression level was plotted as log fold change relative to the signal from the control untreated cells.
The expression of IFNE1 in response to P276-00 or Flavopiridol was also studied in different cancer cell lines such as HCT116, HL-60 (leukemia) and Calu-1. HCT116, Calu-1, H460 and HL-60 cells were obtained from ATCC and were maintained in culture medium with 10% fetal bovine serum. P276-00 and Flavopiridol were synthesized in-house and 10 mM stocks in DMSO were used for the assays. HCT116 (FIG. 3A) cells in culture were treated with P276-00 and Flavopiridol at 200 nM and 250 nM respectively for 6 hours, 12 hours and 24 hours. HL-60 (FIG. 3B) cells were treated with 300 nM of P276-00 and […] of Flavopiridol for 3 hours, 6 hours, 12 hours and 24 hours and Calu-1 (FIG. 3C) cells were treated with 1.2 μM of P276-00 and 450 nM of Flavopiridol for 4 hours, 8 hours, 12 hours, 24 hours and 48 hours. RNA was prepared from the samples and QRT-PCR was performed to estimate level of IFNE1.

Assay [2] relates to IFNE1 gene in HCT116 xenografts. Nature of the assay: Oligonucleotide microarray expression profiling of IFNE1 in HCT116 xenografts treated with P276-00 or Flavopiridol. The class given is in vivo, SCID mice. Here is the method: Colon carcinoma (HCT-116) cells were injected into severe combined immunodeficient (SCID) mice intraperitoneally. Xenografts were allowed to grow, typically for 7 days until the tumors reached a size of 5×5 mm before therapeutic agent administration. A total of 56 animals were used for the study. Animals that were treated with two consecutive day administrations of the agent/vehicle were considered as the acute treated group. The acute treated group of animals consisted of 8 sham treated, 10 Flavopiridol (2.5 mg/kg) treated, and P276-00 (35 mg/kg) treated mice. A similar group of animals was treated with either vehicle or agent for 6-7 days consecutively and was considered as the chronic treated group, as discussed below. The differences in the concentrations used reflect the differences in the IC50 values of the two therapeutic agents.
At the end of the acute/chronic treatments, the xenografts were excised from the animals and RNA was prepared using Trizol reagent (Sigma, USA) as per the manufacturer's protocol. Briefly, xenograft tissues were homogenized under liquid nitrogen and resuspended in Trizol ([…] tissue) followed by chloroform extraction. The RNA was precipitated in isopropanol and the pellet was washed using 70% ethanol. RNA samples thus obtained were resuspended in RNase-DNase free water. Quality and quantity of RNA was measured by spectrometry using ND-1000 spectrometer (Nanodrop, Wilmington, Del., USA).
To account for variability in gene expression in the xenografts before agent treatments, RNA samples from the respective control groups were pooled proportionally. Each of the P276/FP acute treated xenograft was, therefore, compared with pooled acute control RNA samples and the same method was adopted for the chronically treated samples. For microarray hybridization, a total of 20 μg of RNA was used for cDNA synthesis, which was indirectly labeled with Cy3 (pooled control) or Cy5 (individual treated xenograft) fluorescent dyes as described (Chinnaiyan AM et. al., Am J. Pathol. 2001 October; 159(4): 1199-209). A 23,290 oligonucleotide array (Illumina, USA) was spotted using the OmniGrid™ Genemachines. The slides were processed by standard procedures and hybridization was performed in the two-channel mode. Post hybridization, the slides were washed and scanned using GeneTAC UC-4 and images obtained were analyzed using the GenePix Pro 5.1. The median of ratios of intensities (Cy5/Cy3) obtained from the two channels was subjected to Cluster analysis and viewed using the Treeview program. Median of ratios above 2 is considered as significant upregulation of the specific gene in the drug treated xenograft and a value below 0.5 is considered as downregulation of the specific gene in the drug treated xenograft.
A total of 16 hybridizations representing 10 acute treatments (FIG. 1A) and 6 chronic treatments (FIG. 1B) were analyzed. Individual hybridizations were numbered according to acute (A) or chronic (C) treatment followed by the animal number and the respective agent used. For example, A20 (P276) identifies acute treated xenograft with P276-00 in the animal numbered 20.
The values represent the log of median of ratio for IFNE1 gene across different xenografts treated with either P276-00 or Flavopiridol. As mentioned before, a ratio value above 1 indicates a two-fold increase in the gene levels. The Cluster analysis identifies upregulation of IFNE1 consistently across both acute (Table 1A) and chronic (Table 1B) treatments of HCT116 xenografts.

The record followed here is patent publication US20110151469A1, “INTERFERON EPSILON (IFNE1) AS A MARKER FOR TARGETED CANCER THERAPY” (PIRAMAL LIFE SCIENCES LIMITED, priority 2008, published 2011).

For the compound `CN1CC[C@H](c2c(O)cc(O)c3c(=O)cc(-c4ccccc4Cl)oc23)[C@H](O)C1` [Flavopiridol], the “IFNE1 level relative to control untreated cells” value in assay [1] is “significant increase”. Besides, the “log of median of ratio for IFNE1 gene” value in assay [2] (acute treatment, xenograft A3, Flavopiridol 2.5 mg/kg, log base 2 vs pooled control) worked out at 2.017; in assay [2] (acute treatment, xenograft A6, Flavopiridol 2.5 mg/kg, log base 2 vs pooled control), 1.121; in assay [2] (acute treatment, xenograft A9, Flavopiridol 2.5 mg/kg, log base 2 vs pooled control) it was 1.568; in assay [2] (acute treatment, xenograft A15, Flavopiridol 2.5 mg/kg, log base 2 vs pooled control), 1.228; in assay [2] (acute treatment, xenograft A22, Flavopiridol 2.5 mg/kg, log base 2 vs pooled control), 1.17; in assay [2] (chronic treatment, xenograft C6, Flavopiridol, log base 2 vs pooled control), 2.731. For the same compound, the “log of median of ratio for IFNE1 gene” value in assay [2] (chronic treatment, xenograft C9, Flavopiridol, log base 2 vs pooled control) came out at 1.723; in assay [2] (chronic treatment, xenograft C15, Flavopiridol, log base 2 vs pooled control), 1.595.

As to `CN1CC[C@@H](c2c(O)cc(O)c3c(=O)cc(-c4ccccc4Cl)oc23)[C@@H]1CO.Cl` [Compound P276-00, (+)-trans-2-(2-Chloro-phenyl)-5,7-dihydroxy-8-(2-hydroxymethyl-1-methyl-pyrrolidin-3-yl)-chromen-4-one hydrochloride], the “IFNE1 level relative to control untreated cells” value in assay [1] was “significant increase”. Moreover, the “log of median of ratio for IFNE1 gene” value in assay [2] (acute treatment (two consecutive days), xenograft A20, P276-00 35 mg/kg, log base 2 of Cy5/Cy3 vs pooled control) turned out to be 2.26; in assay [2] (acute treatment, xenograft A2, P276-00 35 mg/kg, log base 2 vs pooled control), 1.107; in assay [2] (acute treatment, xenograft A5, P276-00 35 mg/kg, log base 2 vs pooled control), 1.966; in assay [2] (acute treatment, xenograft A11, P276-00 35 mg/kg, log base 2 vs pooled control), 2.053; in assay [2] (acute treatment, xenograft A23, P276-00 35 mg/kg, log base 2 vs pooled control) it was 3.252; in assay [2] (chronic treatment (6-7 days consecutively), xenograft C17, P276-00, log base 2 vs pooled control) it was 0.7715. Besides, the “log of median of ratio for IFNE1 gene” value in assay [2] (chronic treatment, xenograft C11, P276-00, log base 2 vs pooled control) was 1.318; in assay [2] (chronic treatment, xenograft C23, P276-00, log base 2 vs pooled control), 1.326.
